Results reported in PubChem BioAssay (NCI).
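Method: 48-hour compound exposure of cells in 96-well plates, five concentrations, linear interpolation of endpoints. TGI: total growth inhibition.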

Assays:
Assay in all cases: NCI tumour cell line growth inhibition, 48 h
NCI/ADR-RES ovarian = tested on: NCI/ADR-RES ovarian
KM12 colon = tested on: KM12 colon
HOP-92 NSCLC = tested on: HOP-92 NSCLC
CAKI-1 renal = tested on: CAKI-1 renal
SK-MEL-5 melanoma = tested on: SK-MEL-5 melanoma
M14 melanoma = tested on: M14 melanoma
BT-549 breast = tested on: BT-549 breast
UACC-257 melanoma = tested on: UACC-257 melanoma
COLO 205 colon = tested on: COLO 205 colon
SN12C renal = tested on: SN12C renal
SK-MEL-28 melanoma = tested on: SK-MEL-28 melanoma
SF-268 CNS = tested on: SF-268 CNS

| SMILES | TGI (NCI/ADR-RES ovarian) [µM] | TGI (KM12 colon) [µM] | TGI (HOP-92 NSCLC) [µM] | TGI (CAKI-1 renal) [µM] | TGI (SK-MEL-5 melanoma) [µM] | TGI (M14 melanoma) [µM] | TGI (BT-549 breast) [µM] | TGI (UACC-257 melanoma) [µM] | TGI (COLO 205 colon) [µM] | TGI (SN12C renal) [µM] | TGI (SK-MEL-28 melanoma) [µM] | TGI (SF-268 CNS) [µM] |
| --- | --- | --- | --- | --- | --- | --- | --- | --- | --- | --- | --- | --- |
| Cn1c2ccccc2c(=NNc2ccc(C(=O)O)cc2)c2ccccc21 | 57.9 | 50.3 | 57.7 | 63.4 | 32.7 | 31.8 | 74.9 | 57 | 32.3 | 75.3 | 60.7 | 48 |
| COc1cc2c(cc1OC)CC(N=[N+]=[N-])c1cc(OC)c(OC)cc1/C=C\2 (centres undefined) | > 100 | > 100 | > 100 | 95.3 | 63.1 | > 100 | 38.8 | > 100 | > 100 | > 100 | > 100 | > 100 |
| Cc1ccc(N=C2C(=O)C3=C(OC(C)(C)CC3)c3ccccc32)cc1 | 1.75 | 4.01 | 3.2 | 3.16 | 2.28 | 1.59 | 3.46 | 1.72 | 3.29 | 1.73 | 4.69 | 6.37 |
| CCC(CCCC[C@@H]1CC[C@H]2CC(=O)C[C@@H]12)OC (some centres undefined) | > 100 | > 100 | > 100 | > 100 | > 100 | > 100 | > 100 | > 100 | > 100 | > 100 | > 100 | > 100 |
| Cc1cc2c(c(C=NCc3ccccc3)c1)OC1(C=C2)Oc2ccccc2C(=O)N1C (centres undefined) | 48 | 64.5 | 43 | 66.5 | 50.3 | > 100 | 62.5 | 67 | 39.8 | 78 | > 100 | 76.3 |
| CN(C)Cc1cc(N=Nc2ccccc2)cc(CN(C)C)c1O | > 100 | > 100 | > 100 | > 100 | > 100 | > 100 | > 100 | > 100 | > 100 | > 100 | > 100 | > 100 |
| CC(C)C1OC(=O)/C=C/C=C/C=C/C=C/C=C/CC(O)CC(O)CC(O)CC(O)CC(O)CC(O)CC(O)CC(O)/C=C/C1C (centres undefined) | > 100 | > 100 | > 100 | > 100 | > 100 | > 100 | > 100 | > 100 | > 100 | > 100 | > 100 | > 100 |
| CC(C)=CCC/C(C)=C/CC/C(C)=C/CC/C(C)=C/CC/C(C)=C\CC/C(C)=C/CC/C(C)=C/CC/C(C)=C/Cc1cc(O)ccc1O | 1.92 | 2.53 | > 32.8 | 0.703 |  | 1.25 | 5.81 | 2.91 | > 100 | > 100 | > 100 | 5.21 |
| S=C1N=C(Cl)C2(NN1)c1ccccc1-c1ccccc12 | > 10 | > 10 | > 10 | > 10 | > 10 | > 10 | > 10 | > 10 | > 10 | > 10 | > 10 | > 10 |
| COC(=O)/N=[N+](\[O-])C(c1ccc(OC)cc1)C1CCCCC1 (centres undefined) | 15.8 | 16.7 | 36.8 | 10.3 | > 41.4 | 13.1 | 43 | 25.3 | 3.36 | 11.3 | 38.7 | 37.9 |
| O=C1CCCCc2cccc(O)c21 | > 100 | > 100 | > 100 | > 100 | > 100 | > 100 | > 100 | > 100 | > 100 | > 100 | > 100 | > 100 |
| CN(C)c1ccc(/C=C/C=C(/C#N)c2ccccc2)cc1 | 35.3 | 34.1 | > 100 | > 100 | > 100 | > 85.1 | > 100 | > 100 | > 92.1 | > 100 | > 100 | > 100 |
| COc1ccc2c3c1OC1c4[nH]c5ccccc5c4CC4(O)C(C2)N(C)CCC314 (centres undefined) | > 100 | > 100 | 48.7 | > 100 | 29.5 | 32.3 | > 100 | 34.1 | 37.7 | > 100 | 34.5 | > 100 |
| N#CC1(C#N)NC(c2ccsc2)C(C#N)(C#N)NC1c1ccsc1 (centres undefined) | > 100 | > 100 | > 100 | > 100 | > 100 | > 100 | > 100 | > 100 | > 100 | > 100 | > 100 | > 100 |
| COC(=O)c1c(C)cccc1CC1Cc2c(C)cccc2C1=O (centres undefined) | 64.2 | 73.2 | 70.9 | > 100 | 37.5 | > 100 | > 100 | 72.9 | 48.3 | > 100 | > 100 | > 100 |
| C=CC[C@H]1[C@H](O[Si](C)(C)C(C)(C)C)C=CC(=O)[C@@H]1CC(=O)N(Cc1ccccc1)Cc1ccccc1 | 80.6 | > 100 | 8.51 | 90.2 | 20.7 | > 100 | 51.6 | 65.8 | 25.6 | 90.4 | > 100 | 93.4 |
| c1cc2c(c(-c3c4ccccc4nc4ccccc34)c1)CC1(CC2)OCCO1 | > 100 | > 100 | > 100 | > 100 | > 100 | > 100 | > 100 | > 100 | > 100 | > 100 | > 100 | > 100 |
| CC(=O)Nc1ccc2c3c(cc(O)c2c1)N(C(=O)CCCCC(=O)Nc1ccc2c4c(cc(O)c2c1)N(C(=O)OC(C)(C)C)CC4CCl)CC3CCl (centres undefined) | > 79.7 | > 100 | 32.8 | 71.5 | 3.18 | > 34.1 | > 27.1 | 5.16 | 4.17 | 21.8 | 23.2 | 7.21 |

| SMILES | TGI (NCI/ADR-RES ovarian) [µM] | TGI (KM12 colon) [µM] | TGI (HOP-92 NSCLC) [µM] | TGI (CAKI-1 renal) [µM] | TGI (SK-MEL-5 melanoma) [µM] | TGI (M14 melanoma) [µM] | TGI (BT-549 breast) [µM] | TGI (UACC-257 melanoma) [µM] | TGI (COLO 205 colon) [µM] | TGI (SN12C renal) [µM] | TGI (SK-MEL-28 melanoma) [µM] | TGI (SF-268 CNS) [µM] |
| --- | --- | --- | --- | --- | --- | --- | --- | --- | --- | --- | --- | --- |
| Cc1cccc2c1NC(=S)[C@@H]1CCCN1C2=O | > 100 | > 100 | > 100 | > 100 | > 100 | > 100 | > 100 | > 100 | > 100 | > 100 | > 100 | > 100 |
| O=[N+]([O-])c1ccc2nc(/C=C(\O)c3ccc(F)cc3)c(/C=C(\O)c3ccc(F)cc3)nc2c1 | > 100 | > 100 | > 100 | > 100 | > 100 | > 100 | 91.5 | > 100 | > 100 | > 100 | > 100 | > 100 |
| O=S1C2=C(Cc3ccccc3)C(Cc3ccccc3)=C1CCc1cccc(c1)CC2 | 38.7 | 26.7 | 26.4 | 28.7 | 30 | 29 | 27.2 | 27.8 | 58.8 | 30.6 | 42.3 | 31.8 |
| COCCOCCOC1=C(Cl)C(=O)c2c(O)ccc(O)c2C1=O | 9.14 | 31.9 | 3.95 | 3.17 | 3.79 | 3.29 | 4.01 | 4.04 | 2.45 | 3.7 | 5.12 | 7.26 |
| Cc1c(NC(=S)Nc2ccc(Cl)cc2)c(=O)n(-c2ccccc2)n1C | > 100 | > 100 | > 100 | > 100 | > 100 | > 100 | > 100 | > 100 | > 100 |  | > 100 | > 100 |
| Brc1ccc2[nH]cc(-c3nc(-c4c[nH]c5ccccc45)cs3)c2c1 | 11.2 | 5.1 | 7.86 | 8.2 | 4.01 | 3.73 | 23.4 | 15.4 | 2.76 | 13.9 | 20.9 | 11.4 |
| C[Si](C)(OCCS(=O)(=O)O)C1S(=O)(=O)OCCOS1(=O)=O | > 100 | > 100 | > 100 | 84 | > 100 | > 100 | > 100 | > 100 | > 100 | > 100 | > 100 | > 100 |
| CN(CCc1ccc(N)cc1)[C@H]1CCCC[C@H]1N1CCCC1 | > 100 | > 100 | > 100 | > 100 | > 100 | > 100 | > 100 | > 100 | > 100 | > 100 | > 100 | > 100 |
| CCOc1cc(NC(C)=O)ccc1C(=O)NN1C(=O)/C(=C/c2cc(OC)c(OC)c(OC)c2)N=C1c1ccccc1 | > 100 | 98.2 | > 100 | > 100 | > 100 | > 100 | 69.2 | > 100 | > 100 | > 100 | > 100 | > 100 |
| Cc1ccc2c(n1)C(=O)c1ccccc1C2=O | 60.1 | > 100 | > 100 | > 89.2 | 19.7 | > 75.5 | 89 | 37.9 | 37 | > 88.2 | > 100 | > 100 |
| N#Cc1ccc(OCc2nc3cc(C(F)(F)F)ccc3nc2-c2ccccc2)cc1 | > 100 | > 100 | > 100 | > 100 | > 100 | > 100 | > 100 | > 100 | > 100 | > 100 | > 100 | > 100 |
| COc1cccc(NC(=O)CC(=O)N2N=C(C)C(N=Nc3ccc(S(=O)(=O)c4ccc(N=NC5C(=O)N(C(=O)CC(=O)Nc6cccc(OC)c6)N=C5C)cc4)cc3)C2=O)c1 (centres undefined) | > 100 | > 100 | > 100 | > 100 | > 100 | > 100 | > 100 | > 100 | > 100 | > 100 | > 100 | > 100 |
| CC[C@@H](/C=C\CCC1(C[C@H](O)CCC=C(C)C)OCCO1)O[Si](C(C)C)(C(C)C)C(C)C | 53.9 | > 100 | 66.8 | 87.1 | 37.5 | 72.7 | 63.6 | 65.2 | 40.1 | 32.8 | 73.4 | 41.9 |
| CCOC(=O)CCC(NC(=O)c1ccc(N2CCN(c3c(C)nc(N)nc3N)CC2)cc1)C(=O)OCC (centres undefined) | > 100 | > 100 | > 100 | > 100 | 19.6 | > 46 | > 100 | > 55.9 | > 100 | > 100 | > 47.4 | > 100 |
| CSC1=C(c2ccc(Cl)cc2)SC(N2CCCCC2)N1c1ccc([N+](=O)[O-])cc1 (centres undefined) | 62.3 | > 100 | 72.3 | > 100 | 29.9 | > 100 | > 100 | 85.8 | 81.3 |  | > 100 | > 100 |
| CSc1ccc(/C=C2\N=C(c3ccccc3)N(c3nc4ccc(Sc5ccccc5)cc4[nH]3)C2=O)cc1 | 72.3 | 52 | 34 | > 94 | 27.3 | 32.5 | 50.1 | 55.6 | 30.9 | > 84.2 | 51.8 | > 77.8 |
| COc1ccc(CCNC(=O)Cc2cc(OC)c(OC)cc2CO)cc1OC | > 100 | > 100 | > 100 | > 100 | > 100 | > 100 | > 100 | > 100 | > 100 | > 100 | > 100 | > 100 |
| COc1ccc(N=C(Nc2ccc(OC)cc2)C(=Nc2ccc(OC)cc2)Nc2ccc(OC)cc2)cc1 | > 100 | > 100 | > 100 | > 100 | > 100 | > 100 | > 100 | > 100 | > 100 | > 100 | > 100 | > 100 |
